How the values were obtained:
[1] = test system: sterile inflammatory lesions (pus capsule; turpentine oil); test: Biodistribution (pus capsule to contralateral tissue ratio) in rats with sterile inflammation; details: for Pus Capsule and Contralateral Tissue (T/B) Ratio, biodistribution: sterile inflammation, i.v., 10 μCi/rat ^67 Ga (n=2), 5 μCi/rat ^125 IUdR (n=6), mean ± SD
[2] = test system: bacterial (E. coli) inflammatory lesions (pus capsule); test: Biodistribution (pus capsule to contralateral tissue ratio) in rats with bacterial infection; assay type: in vivo; details: for Pus Capsule and Contralateral Tissue (T/B) Ratio, biodistribution: i.v., 10 μCi/rat ^67 Ga (n=2), 5 μCi/rat ^125 IUdR (n=5), mean ± SD
Experimental: (§1) A frozen sample of E. coli bacteria (clinical isolate; ATCC 9339) was used to inoculate a 10 ml trypticase soy medium (trypticase soy broth, BBL #11768, 30 g/L water), and the tube was incubated overnight at […] This culture was used to grow single colonies by streaking the sample on agar plates (100 mm petri dishes each containing 15 ml of […] in the same medium). Good colonies develop in 10-11 hours at 37° C. The agar plates containing bacterial colonies were stored upside down at 4° C. A single colony of bacteria from the agar plate was used to inoculate 10 ml trypticase soy medium, and the tube was incubated overnight at 37° C. with vigorous shaking. Two ml of this overnight culture was transferred into 100 ml trypticase soy medium and the sample incubated at 37° C. with vigorous shaking until the culture reached an OD600 of ~0.8 (in about 2 hrs). This 100 ml culture contained ~6.4×10^10 bacterial cells (1 OD600 =8×10^8 cells/ml).
(§2) The culture was centrifuged at 5500 rpm for 5 min at 4° C. in a Sorvall SS-34 rotor, the bacterial pellet resuspended in saline to give ~2.5×10^9 bacteria/ml, and 0.1 ml of resuspended cells injected into the left thigh muscle of each anesthetized rat.
No-carrier added radioiodinated deoxyuridine (^125 IUdR) was synthesized by the method described in the above disclosure. Commercially available gallium-67 citrate of known biodistribution characteristics was obtained, for comparison to ^125 IUdR. 24 hrs after each rat described in Example 2 received an intramuscular injection of E. coli or after each rat described in Example 1 received an intramuscular injection of turpentine oil (to permit comparison of activity in a bacterial inflammation lesions to activity in a sterile inflammation lesions) in the left rear thigh, each rat received either ^125 IUdR (about 5 μCi/rat) or gallium-67 citrate (about 10 μCi/rat) suspended in 0.1 ml saline, by injection into the tail vein.
At one, three and 24 hrs after ^125 IUdR or gallium-67 citrate administration, the animals from each group were anesthetized, blood collected via cardiac puncture, urine aspirated from the urinary bladder, and the rats humanely sacrificed. The biodistribution of each radiopharmaceutical (measured as a function of the % injected dose/gram body weight) was then determined in various normal tissues and organs, as well as the left and right legs, the pus capsule formed within the leg and in contralateral muscle tissues (i.e., background tissues unaffected by inflammation) of equivalent weight.
To determine the distribution of each radiopharmaceutical in various tissues of each rat (i.e., the "biodistribution" of each radiopharmaceutical), samples of background tissues and organs (blood, lung, liver, spleen, kidney, muscle and intestine), of target tissue (the pus capsule formed in the leg) and of contralateral muscle tissue (background tissue adjacent to target tissue) were obtained from each rat and weighed. Radioactivity in each sample was measured in a well-type gamma counter (from LKB, Wallac Oy, Finland). To correct for radioactive decay and permit calculation of activity in each organ or tissue as a fraction of the injected dosage of radiopharmaceutical, aliquots of the injected doses were counted at the same time that radioactivity in each sample was determined. The results were measured as a function of the percentage of injected dose/gram (% ID/g). For further reference regarding measurements of biodistribution of radiopharmaceuticals, particularly in blood, those of ordinary skill in the art may wish to refer to Baker et al., "The Laboratory Rat" (Acad.Press N.Y., 1980).
Ab = %ID/g over contralateral muscle

[3] = test system: bacterial (E. coli) inflammatory lesions (pus capsule); test: Gamma camera imaging of rats with bacterial infection; assay type: in vivo; set-up: key to Figure of Merit (FOM), equation (1): FOM=(At-Ab)^2/(At+Ab), from total counts target vs background; details: i.v.; for Figure of Merit (FOM), equation (1): 0.2 mCi ^67 Ga-citrate (n=3); for Figure of Merit (FOM), equation (1) / Pus Capsule to Contralateral Tissue (T/B) Ratio, gamma camera imaging: 1.5 mCi/rat ^123 IUdR (n=4); for Figure of Merit (FOM), equation (1) / Pus Capsule to Contralateral Tissue (T/B) Ratio, gamma camera imaging / Figure of Merit (FOM), equation (2): mean ± SD; for Pus Capsule to Contralateral Tissue (T/B) Ratio, gamma camera imaging: 0.2 mCi/rat ^67 Ga (n=3); for Figure of Merit (FOM), equation (2): n=3 (^67 Ga), n=4 (^123 IUdR)
Experimental: as §1, §2
A further set of rats prepared as described in Examples 1 and 2 received intravenous injections of either ^123 IUdR (at a dose of about 1.5 mCi/rat) or gallium-67 citrate (at a dose of about 0.2 mCi/rat). After 1, 3 and 24 hours, rats from each group were anesthetized and imaged using a gamma camera (the General Electric STARCAM™ 400 fitted with parallel hole medium collimator). Anterior images were obtained 10^6 counts/frame except for the 24 h period for ^123 IUdR where a 15 min scan was carried out. A 20% window was present over the 159 keV photopeaks of ^67 Ga (93 kev, 184 keV, and 298 keV).
Regions of interest (ROI) were drawn over the inflamed areas (3×4 pixel) and over the contralateral area in each rat. Total counts in these regions were used to calculate Target to Background (T/B) ratios and to calculate Figure of Merit (FOM; statistical significance) values using either of the following equations:
FOM=(At -Ab)^2 /(At +Ab) (1)
At =counts in ROI (3×4) over pus capsule; and
Ab =counts in ROI (3×4) over contralateral muscle.
Equation (1) is derived from the Report of the National Council on Radiation Protection and Measurements, Nuclear Medicine, "Factors Influencing the Choice and Use of Radionuclides in Diagnosis and Therapy", Report No. 70, p.79 (NRCP, Bethesda, Md., 1982). Equation (2) is derived from Rubin et al., J. Nucl. Med. 30:385-389, 1989. For purposes of reference, the disclosures of each of these publications is incorporated herein.

SMILES: O=C([O-])CC(O)(CC(=O)[O-])C(=O)[O-].[67Ga+3] [^67 Ga, gallium-67 citrate]
- concentration within lesion (pus capsule) vs contralateral tissues (in words) ([1]; sterile inflammation (turpentine oil)): to a greater extent than in the contralateral tissues
- Pus Capsule and Contralateral Tissue (T/B) Ratio, biodistribution ([1]; 3 h): 3.55 ± 0.24
- Pus Capsule and Contralateral Tissue (T/B) Ratio, biodistribution ([1]; 24 h): 2.85 ± 0.64
- concentration within lesion (pus capsule) vs contralateral tissues (in words) ([2]; bacterial (E. coli) inflammation): to a greater extent than in the contralateral tissues
- Pus Capsule and Contralateral Tissue (T/B) Ratio, biodistribution ([2]; bacterial infection, 3 h): 3.21 ± 0.13
- Pus Capsule and Contralateral Tissue (T/B) Ratio, biodistribution ([2]; bacterial infection, 24 h): 4.07 ± 1.09
- time of accumulation at the site of inflammation (in words) ([2]; bacterial infection, FIGS. 1 and 5): did not accumulate at the site of inflammation until several hours after its administration
- detection of the lesion in scintigraphic images (in words) ([3]; 1, 3, and 24 h): can clearly detect the lesion
- Figure of Merit (FOM), equation (1) ([3]; 1 h): 49 ± 60
- Pus Capsule to Contralateral Tissue (T/B) Ratio, gamma camera imaging ([3]; 1 h): 1.26 ± 0.09
- Figure of Merit (FOM), equation (2) ([3]; 1 h): 0.26 ± 0.11
- Figure of Merit (FOM), equation (1) ([3]; 3 h): 306 ± 210
- Pus Capsule to Contralateral Tissue (T/B) Ratio, gamma camera imaging ([3]; 3 h): 2.01 ± 0.24
- Figure of Merit (FOM), equation (2) ([3]; 3 h): 1.01 ± 0.29
- Figure of Merit (FOM), equation (1) ([3]; 24 h): 231 ± 135
- Pus Capsule to Contralateral Tissue (T/B) Ratio, gamma camera imaging ([3]; 24 h): 1.91 ± 0.15
- Figure of Merit (FOM), equation (2) ([3]; 24 h): 0.90 ± 0.21

— patent publication US5811073A, “Method for radioisotopic detection and localization of inflammation in a host” (President and Fellows of Harvard College, priority 1995, dated 1998)
